“Also recorded” adds a separate entry of the source. Where two headings read alike, the source gives them in different places.
How the values were obtained:
[1] = test system: rat CYP3A23 gene cellular promoter
Experimental: The PCR-amplified sequences and target mutagenesis were confirmed by DNA sequencing.
All compounds were purchased from Sigma.
The above notion would predict: (1) The SXR/PXR response element is essential for the activation of CYP3A genes; and (2) The response elements of SXR and PXR are interchangeable. Therefore, mutagenesis analysis was performed on the promoter of the rat CYP3A23 gene to examine these predictions.

[2] = test system: SXR; test: Activation of SXR in transfection-based assays; set-up: activation of SXR: dose or concentration left out as unconfirmed
Experimental: To characterize its response properties, a large variety of steroids, including intermediate and major products of known steroid biosynthetic pathways were tested.

[3] = transfection-based assays, steroids tested

With `Cc1ccc2cc3c(ccc4ccccc43)c3c2c1CC3` [3MC, 3-methylcholanthrene] as the compound, how does the “activation of CYP3A23 cellular promoter reporter” value [1] read?
Its value is “fail to activate or behave as poor activators”.

With `CC/C(=C(/CC)c1ccc(O)cc1)c1ccc(O)cc1` [DES, diethylstilbestrol] as the compound, how does the “activation of SXR by compounds known to induce CYP3A4” value (“activation of SXR by compounds known” below) [2] read?
Its value is “most potent activators”.

How did the “SXR activation of DR-3, DR-4 and DR-5 elements” value (from here on “SXR activation”) [2] turn out when `C[C@]12CC[C@H](O)CC1=CC[C@@H]1[C@@H]2CC[C@]2(C)C(=O)CC[C@@H]12` [DHEA, dehydroepiandrosterone] was run?
The value was “intermediate group”.

What does the source list for `C[C@]12CCC(=O)C=C1CC[C@@H]1[C@@H]2[C@@H](O)C[C@]2(C=O)[C@@H](C(=O)CO)CC[C@@H]12` [aldosterone]?
activation of SXR [2]: inactive; SXR activation of DR-3, DR-4 and DR-5 elements ([2]; series of transfections): little response

How did the “activation of SXR by compounds known” value [2] turn out when `C[C@]12C[C@H](O)[C@H]3[C@@H](CCC4=CC(=O)CC[C@@]43C)[C@@H]1CC[C@@H]2C(=O)CO` [corticosterone] was run?
Its value is “most potent activators”.

What about the “SXR activation” value ([2]; series of transfections) of the same compound?
Its value is “among the best activators”.

What about the “activation of SXR” value [2, 3] of the same compound?
The value was “most potent and efficacious activator; also recorded: activated; also recorded: strongest known activator”.

How did the “SXR activation” value ([2]; series of transfections) turn out when `C[C@]12CCC(=O)C=C1CC[C@@H]1[C@@H]2[C@@H](O)C[C@@]2(C)[C@H]1CC[C@]2(O)C(=O)CO` [cortisol] was run?
Its value is “little response”.

`C[C@]12CCC(=O)C=C1CC[C@@H]1[C@@H]2C(=O)C[C@@]2(C)[C@H]1CC[C@]2(O)C(=O)CO` [cortisone] was tested. Which “SXR activation” value ([2]; series of transfections) did it give?
The value was “intermediate group”.

With `O=c1oc2cc(O)ccc2c2oc3cc(O)ccc3c12` [coumestrol] as the compound, how does the “activation of SXR by compounds known” value [2] read?
Its value is “most potent activators”.

How did the “SXR activation” value [2] turn out when `C[C@]12CCC(=O)C[C@@H]1CC[C@@H]1[C@@H]2CC[C@]2(C)[C@@H](O)CC[C@@H]12` [dihydrotestosterone] was run?
The value was “among the best activators”.

And the “activation of SXR” value [2]?
The value was “remarkably effective activators”.

Which results are given for `CCC1(c2ccccc2)C(=O)NC(=O)NC1=O` [phenobarbital]?
activation of CYP3A23 cellular promoter reporter [1]: fail to activate or behave as poor activators; induction of CYP3A23 cellular promoter reporter [1]: significant induction

With `CC(=O)[C@H]1CC[C@H]2[C@@H]3CC=C4C[C@@H](O)CC[C@]4(C)[C@H]3CC[C@]12C` [pregnenolone] as the compound, how does the “SXR activation” value ([2]; series of transfections) read?
Its value is “among the best activators”.

And the “activation of CYP3A23 cellular promoter reporter” value [1]?
Its value is “fail to activate or behave as poor activators”.

And the “induction of CYP3A23 cellular promoter reporter” value [1]?
Its value is “significant induction”.

`CC(=O)[C@H]1CC[C@H]2[C@@H]3CCC4=CC(=O)CC[C@]4(C)[C@H]3CC[C@]12C` [progesterone] was tested. Which “SXR activation” value ([2]; series of transfections) did it give?
The value was “among the best activators”.

And the “activation of SXR” value [2, 3]?
The value was “activated”.

With estrogen as the compound, how does the “activation of SXR” value [2, 3] read?
Its value is “activated”.
